The values that follow are results of earlier work, collected in patent US12295958B2, “Ready-to-use injectable formulations” (Zoetis Services LLC, priority 2019, dated 2025).

Where a name gives a salt, the structure may show the parent alone. Read-outs that look alike come from different tables or passages of the source.

The conditions of data set [1]: clinical studies.
The subject of the next data set is S. intermedius. The following applies: dogs, single injection, S. intermedius infections.
The test system of the next data set is S. canis. Conditions: dogs, single injection, S. canis infections.
The test system of another data set is Pasteurella multocide. The following applies: cats, single injection, Pasteurella multocide infections.

As to `CCN(CC)CCOC(=O)[C@@H]1N2C(=O)[C@@H](NC(=O)Cc3ccccc3)[C@H]2SC1(C)C` [penethamate], the caking after transport entry (0.15% Tween and ethyl oleate, glass bottles, transported by road (about 2 hours) and air (about 1 hour)) is reported as ““rock solid” cake”. The caking result is given as “did not solve the caking problem” (PVP K30 in addition with 0.5% Tween 80), “hard cake” (addition of 0.5% Tween) and “prevented caking” (addition of 0.5% polyethylene glycol-12-oleate). Moreover, the resuspendability entry runs as follows: (ethyl oleate suspension without Tween 80) “required vigorous shaking and vortexing to disperse the cake”; (ethyl oleate, 0.15% Tween 80 as flocculating agent) “good resuspendability”. For the same molecule, under “increasing concentrations of phospholipids (Lipoid S100), suspensions containing PEG-12-oleate”, the dispersability of sediment result was “less dispersable sediments”. Besides, for the setting “long chain fatty acid mixture with addition of phospholipid”, the caking on vibration entry is “caking on vibration”. For the same molecule, the redispersion after vibration entry runs as follows: (suspension in mixture of long chain saturated and unsaturated fatty acids) “dispersed readily”; (suspensions in Miglyol 840 and Miglyol 812) “difficult to redisperse after vibration”.
On to `CO/N=C(\C(=O)N[C@@H]1C(=O)N2C(C(=O)O)=C([C@@H]3CCCO3)CS[C@H]12)c1csc(N)n1` [Convenia, (6R,7R)-7-[[(2Z)-(2-amino-4-thiazolyl)(methoxyimino)acetyl]amino]-8-oxo-3-[(2S)-tetrahydro-2-furanyl]-5-thia-1-azabicyclo[4.2.0]oct-2-ene-2-carboxylic acid, monosodium salt], for which the “clinical equivalence of a single injection” value in data set [1] was “clinically equivalent to a 14-day oral antibiotic regimen”. For the same molecule, the “time therapeutic drug concentrations are maintained” value is recorded as “approximately 7 days” in the data set with S. intermedius and “about 14 days” in the data set on S. canis. Further, in the data set with Pasteurella multocide, the “time therapeutic dose concentrations are provided” value was “approximately 7 days”.
